The source of these data is patent US5232913A, “Antihepatopathic composition” (Senju Pharmaceutical Co., Ltd., priority 1990, dated 1993).

This assay deals with acetaminophen-induced hepatic impairment. In words: Effect on acetaminophen-induced hepatic impairment. The settings on record: Male SD rats; for inhibitory effect on acetaminophen-induced hepatic impairment (antihepatopathic effect, in words) / inhibition at 500 µmol/kg / s-GOT % inhibition / s-GPT % inhibition: 0.5 mmole/kg orally; for inhibitory effect on acetaminophen-induced hepatic impairment (antihepatopathic effect, in words): acetaminophen 300 mg/kg i.p.; for s-GOT / s-GPT: test substance 0.5 mmole/kg orally, one hour later acetaminophen 300 mg/kg i.p., mean ± S.E., n = 7-10; for s-GOT / s-GPT / inhibition at 500 µmol/kg / s-GOT % inhibition / s-GPT % inhibition: serum after 24 hours; for inhibition at 500 µmol/kg: Rattus norvegicus; for inhibition at 500 µmol/kg / s-GOT % inhibition / s-GPT % inhibition: one hour before acetaminophen 300 mg/kg i.p., versus physiological saline control. It counts as in vivo, rat. The procedure:
Method; Male SD rats (body weights ca. 180 g) purchased form Japan SLC were used. The test substance was orally administered (0.5 mmole/kg) and one hour later 300 mg/kg of acetaminophen was intraperitoneally administered. After 24 hours, blood was drawn from the abdominal aorta and the serum was separated. Using this serum, s-GOT and GPT were determined.

Like-named read-outs stand apart in the source and are kept apart here.

A word on the inhibition: it is how much of the control response was suppressed. For the molecule `CC(C)OC(=O)CC(C)SC[C@H](NC(=O)CC[C@H](N)C(=O)O)C(=O)NCC(=O)O` (stereo partly drawn) [compound 9, S-(1-Methyl-2-carboisopropoxyethyl)glutathione], the “inhibitory effect on acetaminophen-induced hepatic impairment (antihepatopathic effect, in words)” value (“inhibitory effect” below) is “significant antihepatopathic effects”; the s-GOT is on record as 171 ± 71 IU/l; the s-GPT is on record as 43 ± 21 IU/l. The inhibition at 500 µmol/kg (read-out: s-GOT % inhibition) amounted to 96.8%. Moreover, the inhibition at 500 µmol/kg (read-out: s-GPT % inhibition) was determined as 97.9%.
In the same order, the values of `CCOC(=O)CCSC[C@H](NC(=O)CC[C@H](N)C(=O)O)C(=O)NCC(=O)O` [compound 4, S-(2-Carbethoxyethyl)glutathione] are “significant antihepatopathic effects”, 1935 ± 530 IU/l, 598 ± 226 IU/l, 63.3% and 71%.
On to `CC(C)COC(=O)C(C)CSCC(NC(=O)CCC(N)C(=O)O)C(=O)NCC(=O)OC(C)C` (stereo not drawn) [compound 8, S-(2-Methyl-2-carbiosobutoxyethyl)glutathione isopropyl ester], for which the s-GOT % inhibition came to 96.9%; the s-GPT % inhibition is on record as 97.5%; the “inhibitory effect” value is given as “significant antihepatopathic effects”; the s-GOT came to 163 ± 89 IU/l. The same molecule came in with a s-GPT of 52 ± 29 IU/l.
As for `CC(CSC[C@H](NC(=O)CC[C@H](N)C(=O)O)C(=O)NCC(=O)O)C(=O)O` (stereo partly drawn) [compound 1, S-(2-carboxypropyl)glutathione], the “inhibitory effect” value is recorded as “significant antihepatopathic effects”; the s-GOT is listed as 1259 ± 424 IU/l; the s-GPT was 337 ± 117 IU/l. The inhibition at 500 µmol/kg (read-out: s-GOT % inhibition) was 76.1%. In addition, the inhibition at 500 µmol/kg (read-out: s-GPT % inhibition) turned out to be 83.6%.
`CC(C)COC(=O)C(C)CSC[C@H](NC(=O)CC[C@H](N)C(=O)O)C(=O)NCC(=O)O` (stereo partly drawn) [compound 5, S-(2-Methyl-2-carboisobutoxyethyl)glutathione] displayed a s-GOT % inhibition of 43.6%, a s-GPT % inhibition of 32.8%, a s-GOT of 2972 ± 803 IU/l and a s-GPT of 1384 ± 417 IU/l.
In turn, `CC(CSC[C@H](NC(=O)CC[C@H](N)C(=O)O)C(=O)NCC(=O)O)C(=O)OCc1ccccc1` (stereo partly drawn) [compound 6, S-[2-Methyl-2-carbobenzoxyethyl]glutathione] returned a s-GOT of 2968 ± 824 IU/l and a s-GPT of 1384 ± 421 IU/l. In addition, the inhibition at 500 µmol/kg (read-out: s-GOT % inhibition) is 43.7%. Also, under “read-out: s-GPT % inhibition”, the inhibition at 500 µmol/kg was found to be 32.8%.
Turning to `CCOC(=O)C(C)CSCC(NC(=O)CCC(N)C(=O)O)C(=O)NCC(=O)OC(C)C` (stereo not drawn) [compound 7, S-(2-Methyl-2-carbethoxyethyl)glutathione isopropyl ester], the s-GOT % inhibition turned out to be 70.2%; the s-GPT % inhibition was determined as 74.3%; the “inhibitory effect” value is given as “significant antihepatopathic effects”; the s-GOT is reported as 1570 ± 511 IU/l. The s-GPT was found to be 529 ± 168 IU/l.
Regarding `N[C@@H](CCC(=O)N[C@@H](CSCCC(=O)O)C(=O)NCC(=O)O)C(=O)O` [compound 3, S-(2-Carboxyethyl)glutathione], the “inhibitory effect” value was “significant antihepatopathic effects”; the s-GOT is on record as 1968 ± 626 IU/l; the s-GPT was found to be 530 ± 180 IU/l. For the same molecule, the inhibition at 500 µmol/kg (read-out: s-GOT % inhibition) was 62.6%. The inhibition at 500 µmol/kg (read-out: s-GPT % inhibition) was 74.3%.
In the same order, the values of `CCOC(=O)C(C)CSC[C@H](NC(=O)CC[C@H](N)C(=O)O)C(=O)NCC(=O)O` (stereo partly drawn) [compound 2, S-(2-carbethoxypropyl)glutathione] are “significant antihepatopathic effects”, 841 ± 354 IU/l, 195 ± 81 IU/l, 84% and 90.5%.
